Source: US11999727B2 (Tango Therapeutics, Inc., priority 2020, dated 2024)

Assays:
PRMT5 [1] = target: T1, PRMT5 (Homo sapiens, UniProt O14744); experiment: PRMT5 biochemical IC50 assay with SAM as cofactor; settings: PRMT5, SAM as cofactor; read-out: SAM IC50
T1 construct: purchased Viva (custom protein)

[2] = test system: HAP1 MTAP-deleted cell line; experiment: SDMA in-cell western assay, HAP1 MTAP-deleted; format: cell-based; settings: for IC50: Homo sapiens, HAP1, SDMA in-cell western, HAP1 MTAP-deleted, read-out: HAP1 MTAP deleted IC50; for MTAP intact/deleted ratio: IC50 ratio HAP1 MTAP-intact / HAP1 MTAP-deleted, SDMA in-cell western
How it was run: (§1)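 Isogenic HAP1 pair: the MTAP-intact line expresses endogenous MTAP, and the deleted line is MTAP-null. Symmetric dimethylarginine was detected by in-cell western and IC50 values derived for each line.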

[3] = test system: HAP1 MTAP-deleted cell line; experiment: Viability assay, MTAP-deleted cell line; format: cell-based; settings: Homo sapiens, HAP1, viability assay, MTAP-deleted cell line; read-out: HAP1 MTAP deleted viability
Description: Table 1 additionally indicates IC50 values in a viability assay for the MTAP-deleted cell line (column 10), indicating the effect of treatment with compound on cell survival.

[4] = test system: HAP1 MTAP-intact cell line; experiment: SDMA in-cell western assay, HAP1 MTAP-intact; format: cell-based; settings: Homo sapiens, HAP1, SDMA in-cell western, HAP1 MTAP-intact; read-out: MTAP HAP1 intact IC50
How it was run: as §1

PRMT5 [5] = target: T1, PRMT5; experiment: PRMT5 biochemical IC50 assay with MTA as cofactor; settings: PRMT5, MTA as cofactor; read-out: MTA IC50
PRMT5 [6] = target: T1, PRMT5; experiment: PRMT5 biochemical IC50 assay with no cofactor; settings: PRMT5, no cofactor; read-out: No Cofactor/rel IC50
Description: Table 1 indicates IC50 values (μM) against PRMT5 for exemplary compounds in the presence of SAM as cofactor, with no cofactor, and with MTA as cofactor, respectively (columns 4-6). […] Ki values can be calculated from the IC50 values as described in the Examples section. As detailed in the Examples section, for the assay performed in the presence of SAM, IC50=Ki×1.5 (Ki=IC50/1.5).

T1 sequence (O14744 whole entry): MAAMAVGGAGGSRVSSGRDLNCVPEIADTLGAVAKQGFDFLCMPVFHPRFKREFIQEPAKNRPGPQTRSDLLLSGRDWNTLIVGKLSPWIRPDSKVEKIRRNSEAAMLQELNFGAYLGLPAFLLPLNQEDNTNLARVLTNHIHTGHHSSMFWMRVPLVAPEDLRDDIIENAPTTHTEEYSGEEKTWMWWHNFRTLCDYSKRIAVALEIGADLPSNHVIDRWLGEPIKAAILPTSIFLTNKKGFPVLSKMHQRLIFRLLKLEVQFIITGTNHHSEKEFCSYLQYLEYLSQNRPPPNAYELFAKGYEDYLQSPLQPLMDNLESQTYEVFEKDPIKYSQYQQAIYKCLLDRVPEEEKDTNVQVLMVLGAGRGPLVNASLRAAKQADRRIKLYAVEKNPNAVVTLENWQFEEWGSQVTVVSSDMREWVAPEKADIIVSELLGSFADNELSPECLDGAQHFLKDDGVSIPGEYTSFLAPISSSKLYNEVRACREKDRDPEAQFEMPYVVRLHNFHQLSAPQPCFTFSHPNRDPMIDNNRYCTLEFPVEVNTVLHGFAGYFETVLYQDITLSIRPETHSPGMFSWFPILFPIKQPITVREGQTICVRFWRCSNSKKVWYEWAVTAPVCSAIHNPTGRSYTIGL
T1 sequence (Q9BQA1 whole entry partner): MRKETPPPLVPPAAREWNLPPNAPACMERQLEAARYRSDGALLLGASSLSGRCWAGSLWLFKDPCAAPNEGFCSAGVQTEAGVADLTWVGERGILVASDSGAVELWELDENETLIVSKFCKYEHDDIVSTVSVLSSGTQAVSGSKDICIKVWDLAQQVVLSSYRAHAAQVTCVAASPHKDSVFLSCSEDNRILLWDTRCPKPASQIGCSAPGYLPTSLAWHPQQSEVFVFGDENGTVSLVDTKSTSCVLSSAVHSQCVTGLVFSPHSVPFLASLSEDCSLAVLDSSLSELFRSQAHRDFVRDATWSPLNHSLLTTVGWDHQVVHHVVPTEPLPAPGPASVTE

| IC50 (PRMT5 [1]) [nM] | IC50 [2] [nM] | IC50 [4] [nM] | IC50 (PRMT5 [5]) [nM] | IC50 (PRMT5 [6]) [nM] | SMILES | MTAP intact/deleted ratio [2] | IC50 [3] [nM] |
| --- | --- | --- | --- | --- | --- | --- | --- |
| 50 to 500 | 100 to 1000 | > 1000 | < 50 | 50 to 500 | C[C@@H]1CC[C@@H](c2ccc(C(N)=O)cc2)N(C(=O)C(=O)Nc2cncc(C(N)=O)c2)C1 (racemic) [Compound 220, rac-5-{2-[(2R,5S)-2-(4-Carbamoylphenyl)-5-methylpiperidin-1-yl]-2-oxoacetamido}pyridine-3-carboxamide] | A (an IC50 ratio greater than or equal to 10 fold) | > 10000 |
| 50 to 500 | 100 to 1000 | > 1000 | 50 to 500 | 50 to 500 | C[C@@H]1CC[C@@H](c2ccnc(C(F)(F)F)c2)N(C(=O)C(=O)Nc2cncc(C(N)=O)c2)C1 (racemic) [Compound 221, rac-5-{2-[(2R,5S)-5-Methyl-2-[2-(trifluoromethyl)pyridin-4-yl]piperidin-1-yl]-2-oxoacetamido}pyridine-3-carboxamide] | A (an IC50 ratio greater than or equal to 10 fold) | > 10000 |
| 50 to 500 | 100 to 1000 | > 1000 | < 50 | 50 to 500 | COc1cc([C@@H]2CC[C@@H](C)CN2C(=O)C(=O)Nc2cncc(C(N)=O)c2)ccc1F (racemic) [Compound 222, rac-5-{2-[(2R,5S)-2-(4-Fluoro-3-methoxyphenyl)-5-methylpiperidin-1-yl]-2-oxoacetamido}pyridine-3-carboxamide] | A (an IC50 ratio greater than or equal to 10 fold) | 1000 to 10000 |
| > 500 | > 1000 | > 1000 | 50 to 500 | > 500 | COc1cc([C@@H]2CC[C@@H](C)CN2C(=O)C(=O)Nc2cncc(C(N)=O)c2)cnc1C(F)(F)F (racemic) [Compound 223, rac-5-{2-[(2R,5S)-2-[5-Methoxy-6-(trifluoromethyl)pyridin-3-yl]-5-methylpiperidin-1-yl]-2-oxoacetamido}pyridine-3-carboxamide] | C (an IC50 ratio of less than 3 fold) | > 10000 |
| 50 to 500 | < 100 | > 1000 | < 50 | 50 to 500 | C[C@@H]1CC[C@@H](c2ccc(N)nc2)N(C(=O)C(=O)Nc2cncc(C(N)=O)c2)C1 (racemic) [Compound 224, rac-5-{2-[(2R,5S)-2-(6-Aminopyridin-3-yl)-5-methylpiperidin-1-yl]-2-oxoacetamido}pyridine-3-carboxamide] | A (an IC50 ratio greater than or equal to 10 fold) | 1000 to 10000 |
| 50 to 500 | < 100 | > 1000 | 50 to 500 | 50 to 500 | COc1cc([C@@H]2CC[C@@H](C)CN2C(=O)C(=O)Nc2cncc(C(N)=O)c2)ccn1 (racemic) [Compound 225, rac-5-{2-[(2R,5S)-2-(2-Methoxypyridin-4-yl)-5-methylpiperidin-1-yl]-2-oxoacetamido}pyridine-3-carboxamide] | A (an IC50 ratio greater than or equal to 10 fold) | 1000 to 10000 |
| 50 to 500 | > 1000 | > 1000 | 50 to 500 | > 500 | C[C@@H]1CC[C@@H](c2cncc(-n3cccn3)c2)N(C(=O)C(=O)Nc2cncc(C(N)=O)c2)C1 (racemic) [Compound 226, rac-5-{2-[(2R,5S)-5-Methyl-2-[5-(1H-pyrazol-1-yl)pyridin-3-yl]piperidin-1-yl]-2-oxoacetamido}pyridine-3-carboxamide] | C (an IC50 ratio of less than 3 fold) | > 10000 |
| 50 to 500 | 100 to 1000 | > 1000 | 50 to 500 | 50 to 500 | COc1ccc([C@@H]2CC[C@@H](C)CN2C(=O)C(=O)Nc2cncc(C(N)=O)c2)cc1 (racemic) [Compound 228, rac-5-{2-[(2R,5S)-2-(4-Methoxyphenyl)-5-methylpiperidin-1-yl]-2-oxoacetamido}pyridine-3-carboxamide] | A (an IC50 ratio greater than or equal to 10 fold) | 1000 to 10000 |
| > 500 | > 1000 | > 1000 | 50 to 500 | > 500 | C[C@@H]1C[C@H](c2ccccc2)N(C(=O)C(=O)Nc2cncc(C(N)=O)c2)C[C@@H]1C (racemic) [Compound 229, 5-[[2-[(2S,4S,5S)-4,5-dimethyl-2-phenyl-1-piperidyl]-2-oxo-acetyl]amino]pyridine-3-carboxamide] | B (an IC50 ratio greater than or equal to 3 fold but lower than 10 fold) | > 10000 |
| 50 to 500 | 100 to 1000 | > 1000 | < 50 | 50 to 500 | COc1ccc([C@@H]2CC[C@@H](C)CN2C(=O)C(=O)Nc2cncc(C(N)=O)c2)cc1OC (racemic) [Compound 230, rac-5-{2-[(2R,5S)-2-(3,4-Dimethoxyphenyl)-5-methylpiperidin-1-yl]-2-oxoacetamido}pyridine-3-carboxamide] | A (an IC50 ratio greater than or equal to 10 fold) | 1000 to 10000 |
| 50 to 500 | 100 to 1000 | > 1000 | < 50 | 50 to 500 | C[C@@H]1C[C@H](c2ccccc2)N(C(=O)C(=O)Nc2cncc(C(N)=O)c2)C[C@H]1C (racemic) [Compound 231, 5-[[2-[(2R,4R,5S)-4,5-dimethyl-2-phenyl-1-piperidyl]-2-oxo-acetyl]amino]pyridine-3-carboxamide] | A (an IC50 ratio greater than or equal to 10 fold) | > 10000 |
| 50 to 500 | > 1000 | > 1000 | 50 to 500 | 50 to 500 | C[C@@H]1CC[C@@H](c2ccc3nccn3c2)N(C(=O)C(=O)Nc2cncc(C(N)=O)c2)C1 (racemic) [Compound 234, rac-5-{2-[(2R,5S)-2-{Imidazo[1,2-a]pyridin-6-yl}-5-methylpiperidin-1-yl]-2-oxoacetamido}pyridine-3-carboxamide] | C (an IC50 ratio of less than 3 fold) | > 10000 |
| 50 to 500 | > 1000 | > 1000 | 50 to 500 | 50 to 500 | Cc1cc(NC(=O)C(=O)N2C[C@H](C)CC[C@H]2c2ccnn2C)cnc1N (racemic) [Compound 235, N-(6-amino-5-methyl-3-pyridyl)-2-[(2R,5S)-5-methyl-2-(2-methylpyrazol-3-yl)-1-piperidyl]-2-oxo-acetamide] | B (an IC50 ratio greater than or equal to 3 fold but lower than 10 fold) | > 10000 |
| 50 to 500 | > 1000 | > 1000 | 50 to 500 | 50 to 500 | COc1ccc([C@@H]2CC[C@@H](C)CN2C(=O)C(=O)Nc2cncc(C(N)=O)c2)cc1C#N (racemic) [Compound 237, rac-5-{2-[(2R,5S)-2-(3-Cyano-4-methoxyphenyl)-5-methylpiperidin-1-yl]-2-oxoacetamido}pyridine-3-carboxamide] | B (an IC50 ratio greater than or equal to 3 fold but lower than 10 fold) | > 10000 |
| 50 to 500 | 100 to 1000 | > 1000 | < 50 | 50 to 500 | C[C@@H]1CC[C@@H](c2ccc(Cn3ccnc3)cc2)N(C(=O)C(=O)Nc2cncc(C(N)=O)c2)C1 (racemic) [Compound 238, rac-5-{2-[(2R,5S)-2-{4-[(1H-Imidazol-1-yl)methyl]phenyl}-5-methylpiperidin-1-yl]-2-oxoacetamido}pyridine-3-carboxamide] | A (an IC50 ratio greater than or equal to 10 fold) | 1000 to 10000 |
| 50 to 500 | < 100 | > 1000 | < 50 | 50 to 500 | C[C@@H]1CC[C@@H](c2cccc(C#N)c2)N(C(=O)C(=O)Nc2cncc(C(N)=O)c2)C1 (racemic) [Compound 239, rac-5-{2-[(2R,5S)-2-(3-Cyanophenyl)-5-methylpiperidin-1-yl]-2-oxoacetamido}pyridine-3-carboxamide] | A (an IC50 ratio greater than or equal to 10 fold) | 1000 to 10000 |
| 50 to 500 | < 100 | > 1000 | < 50 | 50 to 500 | C[C@@H]1CC[C@@H](c2ccc3ccoc3c2)N(C(=O)C(=O)Nc2cncc(C(N)=O)c2)C1 (racemic) [Compound 241, rac-5-{2-[(2R,5S)-2-(1-Benzofuran-6-yl)-5-methylpiperidin-1-yl]-2-oxoacetamido}pyridine-3-carboxamide] | A (an IC50 ratio greater than or equal to 10 fold) | 1000 to 10000 |
